# Source: patent publication US10071133B2, “Method for destroying exosomes, kit for destroying exosomes, and method for isolating exosomes derived from normal cells” (priority 2015, dated 2018)
# Assays:
# Assay type in all cases: biochemical
# [1] = system: exosome derived from human prostate cancer cells (PC3ML); assay: Extraction of microRNA (miR-21) from exosome derived from prostate cancer cells, real-time PCR; conditions: 100 μM peptide, 1×10^11 particles/mL PC3ML exosomes, 0.4 U/μL RNase inhibitor, 37° C., 24 hours; without peptide 3×10^−14M
# Experimental: A cell suspension of cell line PC3ML derived from human prostate cancer cells (provided by the National Cancer Center Research Institute) was seeded in a dish containing RPMI 1640 medium (manufactured by Thermo Fisher Scientific Inc.) containing 10% fetal bovine serum. Subsequently, the cell line was grown at 37° C. under the condition that CO2 concentration was set to 5 volume % using a CO2 incubator, and then the medium was replaced with Advanced RPMI 1640 medium (manufactured by Thermo Fisher Scientific Inc.), followed by culturing for 48 hours, and the culture solution containing exosomes was obtained. This culture solution was centrifuged at 2,000 G for 10 minutes to remove the precipitate, followed by centrifugation at 110,000 G for 70 minutes to precipitate the exosomes, and therefore an exosome fraction was recovered. The recovered exosome fraction was suspended in a phosphate buffered saline (PBS) and then stored at 4° C. Storage samples were lightly suspended with a vortex mixer (vibration mixer) before use. […]
# The reverse transcription PCR solution obtained by the above described method was processed and by comparing the number of cycles on a calibration curve of microRNA using Taqman Assay primer (manufactured by Thermo Fisher Scientific Inc., Taqman microRNA Assays, Taqman Assay primer, and hsa-mir-21 or hsa-mir-16) and Real-Time PCR Master Mixes (manufactured by Thermo Fisher Scientific Inc., TaqMan Universal PCR Master Mix II, w/UNG) with StepOnePlus Real-Time PCR System, MiR-21 or miR-16 was quantified. […]
# The amount of microRNA (miR-21) contained in the recovered eluate was quantified by the above described real-time PCR method. […] In addition, the destructive activity of the antimicrobial peptide used was evaluated on the basis of the following criteria based on the quantitative result of the concentration of microRNA (miR-21) performed by the real-time PCR method. […]
# [2] = system: exosome fraction A prepared from the cell line MM231-luc-D3H2LN derived from human breast cancer cells; assay: Destruction of exosomes in PBS, number of exosomes by nanoparticle analyzer (NanoSight LM10); conditions: 100 μM peptide, 1.36×10^10 particles/mL exosomes in PBS, 25° C., 24 hours; without peptide 1.36×10^10
# Excerpt: Storage samples were lightly suspended with a vortex mixer (vibration mixer) before use.
# [3] = system: exosome fraction B derived from human breast cancer cells versus exosome fraction derived from normal human serum; assay: Selectivity: miR-16 ratio, breast cancer exosomes versus normal human serum exosomes (Formula 2); conditions: Formula 2, cancer/normal human serum exosomes; magainin 2 100 μM, 37° C., 24 hours
# Experimental: A cell suspension of cell line MDA-MB-231-luc-D3H2LN derived from human breast cancer (=MM231-luc-D3H2LN, provided by the National Cancer Center Research Institute) was seeded in a dish containing RPMI 1640 medium (manufactured by Thermo Fisher Scientific Inc.) containing 10% fetal bovine serum. Subsequently, the cell line was grown at 37° C. under the condition that CO2 concentration was set to 5 volume % using a CO2 incubator, and then the medium was replaced with Advanced RPMI 1640 medium (manufactured by Thermo Fisher Scientific Inc.), followed by culturing for 48 hours, and therefore the culture solution containing exosomes was obtained. This culture solution was centrifuged at 2,000 G for 10 minutes to remove the precipitate, followed by centrifugation at 110,000 G for 70 minutes to precipitate the exosomes, and therefore an exosome fraction B was recovered. The recovered exosome fraction B was suspended in a phosphate buffered saline (PBS) and then stored at 4° C. Storage samples were lightly suspended with a vortex mixer (vibration mixer) before use.
# Storage samples were lightly suspended with a vortex mixer (vibration mixer) before use. […]
substance,measurement,setting,value
Magainin 2,Destructive activity (concentration of microRNA miR-21 in eluate),[1],B (the concentration of microRNA is 5×10^−14M to 10×10^−14M)
same,number of exosomes in the solution,[2],1.89×10^9 particles/mL
same,mir-16 ratio,[3],56.6
